Data published in US6770478B2, “Erythrocytic cells and method for preserving cells” (The Regents of the University of California, priority 2000, dated 2004).
Values joined by “and” are separate entries in the source; they are usually repeats but may differ in a detail not shown here. Equal values may be shown once. “Also recorded” adds a separate entry of the source.

Tests used:
platelets [1] = conditions: platelets cryopreserved with DMSO; cited from earlier work
mesenchymal stem cells [2] = assay: Lucifer yellow CH loading of mesenchymal stem cells, viability by trypan blue exclusion; assay type: cell-based, human; conditions: LYCH loading over 3.5 hours, 37° C.
Text: Lucifer Yellow CH-Loading. […] The pellet was split between two treatments.

erythrocyte membranes = assay: FTIR membrane phase transitions of intact erythrocytes (CH2 symmetric stretch around 2850 cm^-1)
erythrocyte ghosts = assay: FTIR thermotropic response of erythrocyte ghosts; assay type: cell-based, human; conditions: MβCD treated ghosts
Experimental: Cells were incubated at 37° C. for one hour in the presence of 10 mM methyl-β-cyclodextrin (MβCD) in order to remove cholesterol from the plasma membranes. Erythrocyte ghosts were prepared.
FTIR Spectroscopy and Sample Preparation. […] Intact cells were cooled to −5° C., kept at this temperature for 15 minutes, and then rewarmed to determine the phase transitions. […] Four scans were accumulated for each spectrum between 3600-900 cm^−1 at 4 cm^−1 resolution.
Inverted second derivative spectra were normalized on the lipid […] 2850 cm^−1. Band positions were determined as described previously. The wavenumber (cm^−1) of the CH2 symmetric stretching vibration was plotted as a function of temperature. […] For the protein studies, the spectral region between 1600 and 1500 cm^−1 selected.

human platelets = assay: Loading of platelets with trehalose, quantified by anthrone reaction; assay type: cell-based; conditions: 37° C., after 2 hours (rapid linear uptake)
Experimental: Loading of Platelets with Trehalose. Washed platelets in a concentration of 1-2 10^9 platelets/ml were incubated at various temperatures in the presence of 1-20 mg/ml trehalose. Incubation temperatures were chosen from 4° C. to 37° C. Incubation times were varied from 0.5 to 4 hours. After incubation the platelet solutions were washed in buffer A two times (by centrifugation at 14,000 RPM for 20 s in a table centrifuge). Platelet counts were obtained on a coulter counter. Platelets were pelleted (45 S at 14,000 RPM) and sugars were extracted from the pellet using 80% methanol. The samples were heated for 30 minutes at 80° C. […] The amount of trehalose in the platelets was quantified using the anthrone reaction (Umbreit et al., Mamometric and Biochemical Techniques, 5th Edition, 1972). […] Then the samples were cooled on ice and the absorbance was measured at 620 nm on a Perkin Elmer spectrophotometer. The amount of platelet associated trehalose was determined using a standard curve of trehalose.
Quantification of Trehalose and LYCH Concentration. Uptake was calculated for each sample as micrograms of trehalose or LYCH per platelet. The internal trehalose concentration was calculated assuming a platelet radius of 1.2 μm and by assuming that 50% of the platelet volume is taken up by the cytosol (rest is membranes). […]

platelets [3] = assay: Stability and morphology of platelets during trehalose incubation (microscopy, flow cytometric analysis); assay type: cell-based, human; conditions: 4 hours incubation at 37° C., 25 mM external trehalose
Experimental: The stability of the platelets during a 4 hours incubation period was studied using microscopy and flow cytometric analysis. […] No signs of microvesicle formation could be observed after 4 hours incubation, as can be judged by the stable relative proportion of microvesicle gated cells (less than 3%). The formation of microvesicles is usually considered as the first sign of platelet activation (Owners et al., Trans. Med. Rev., 8, 27-44, 1994). Characteristic antigens of platelet activation include: glycoprotein 53 (gp53, a lysosomal membrane marker), PECAM-1 (platelet endothelial cell adhesion molecule-1, an alpha granule constituent), and P-selection (an alpha granule membrane protein).

mesenchymal stem cells [4] = assay: Growth curves of mesenchymal stem cells in presence of 90 mM trehalose; assay type: cell-based, human
Experimental: Growth Curves. MSCs were plated into 12-welled plates at approximately the same seeding density used for T-185 flasks in standard Osiris protocols (5900 cells/cm^2 with fluid volume of 0.189 mL/cm^2). Three wells for each condition at each time point were trypsinized and counted. Data for cells grown in the presence of trehalose were lost for the first two time points. FIG. 13 is a graph illustrating growth curves for the mesenchymal stem cells in the presence or absence of 90 mM trehalose with the open triangle data representing cells grown in standard medium for 24 hours, after which 90 mM trehalose was added.

[5] = Table III, Example 11, five blood donors, standard error, 10 mM MβCD

## C[S+](C)[O-] [DMSO, dimethyl sulfoxide]
Platelets [1]
  overall responsiveness of frozen thawed platelets to various agonists compared with fresh platelets: less than 35%

## NNC(=O)NN1C(=O)c2cc(S(=O)(=O)O)cc3c(N)c(S(=O)(=O)O)cc(c23)C1=O [LYCH, lucifer yellow CH]
Mesenchymal stem cells [2]
  viability: ~70%

## CC(C)c1c(C(=O)Nc2ccccc2)c(-c2ccccc2)c(-c2ccc(F)cc2)n1CC[C@@H](O)C[C@@H](O)CC(=O)O [LIPITOR]
Erythrocyte membranes; erythrocytes of a blood donor who used LIPITOR, other donors 0.8
  total wavenumber excursion (from −5 to 45° C.): ~1.5 cm⁻¹

## methyl-β-cyclodextrin [MβCD]
Erythrocyte ghosts
  transition temperature, first transition: 4 °C
  transition temperature, fourth transition: 30 °C
  transition temperature, second transition: 12 °C
  transition temperature, third transition: 20 °C
Erythrocyte membranes; Example 10, after cholesterol removal (control 0.7)
  wavenumber excursion from −5 to 45° C.: 2.9 cm⁻¹
Erythrocyte membranes; Example 11, after cholesterol removal (control 0.7)
  wavenumber excursion from −5 to 45° C.: 2.9 cm⁻¹
Erythrocyte membranes; Table II, Example 10, 1 mM MβCD, 37° C., one hour
  Cooperativity, Low Transition: 0.051 ± 0.004 cm^−1/° C.
Erythrocyte membranes; [5]
  Cooperativity, High Transition: 0.091 cm^−1/° C. and 0.091 ± 0.020 cm^−1/° C.
  Cooperativity, Low Transition: 0.051 ± 0.004 cm^−1/° C.
  Cooperativity, Middle Transition: 0.095 cm^−1/° C. and 0.095 ± 0.015 cm^−1/° C.
  Transition Temperature, High Transition: 35 °C and 35.4 ± 1.5 °C
  Transition Temperature, Low Transition: 15 °C and 15.3 ± 0.8 °C
  Transition Temperature, Middle Transition: 26 °C and 26.0 ± 0.8 °C

## OC[C@H]1O[C@H](O[C@H]2O[C@H](CO)[C@@H](O)[C@H](O)[C@H]2O)[C@H](O)[C@@H](O)[C@@H]1O [trehalose]
Human platelets
  trehalose uptake: 3.3×10^−10 mol/m^2s
Platelets [3]
  morphological changes of platelets: No morphological changes
Mesenchymal stem cells [4]; after the third day
  effect on cell count: cell count started to drop significantly
Mesenchymal stem cells [4]; up to the third day
  effect on growth of the cells: did not interfere with growth; also recorded: does not interfere with the growth and viability
